A value given as a limit tells only on which side of the number the result lay.

Common to all, as to format: cell-based
Test [1] has as its system Target C CJ mRNA. Kind of test: Gene panel canonical junction qPCR splicing assay, Target C. As to conditions: Table 4, read-out: Target C IC50 (decrease in CJ mRNA levels). Put shortly: (§1)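 A673 or K562 cells treated with compound; canonical-junction mRNA measured by RT-qPCR with junction-spanning primer/probe sets, normalized to GAPDH, GUSB or PPIA and DMSO (2^−ΔΔCt). IC50 for CJ decrease from 4-parameter logistic fit of percentage response.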
(Real-time PCR tracks product formation cycle by cycle.)

Test [2] relates to HTT mRNA. Briefly: Splicing assay (RT-qPCR) of HTT mRNA alternative junction (AJ) and canonical junction (CJ). As to conditions: A673 or K562 cells, 24 hours; for IC50: decrease in CJ mRNA, read-out: HTT CJ IC50; for AC50: increase in AJ mRNA, read-out: HTT AJ AC50. The method in brief:
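A673 (adherent, 24 h pre-plating) or K562 cells treated 24 h at 37 °C with an 11-point 3-fold dilution series, top 10 uM, DMSO ≤0.25%. Lysates analysed by one-step RT-qPCR for HTT canonical (CJ) and alternative-exon (AJ) junctions, normalised to PPIA (A673) or GAPDH/GUSB (K562).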

In test [3] the test system is HTT CJ mRNA. Kind of test: Gene panel canonical junction qPCR splicing assay, HTT. As to conditions: Table 4, read-out: HTT IC50 (decrease in CJ mRNA levels). The method in brief:
as §1

For test [4], the system named is SMN2 CJ mRNA. Kind of test: Gene panel canonical junction qPCR splicing assay, SMN2. The following applies: Table 4, read-out: SMN2 IC50 (decrease in CJ mRNA levels). Put shortly: as §1

For orientation: IC50 means the point on the concentration scale where inhibition reaches its midpoint. Usually AC50 stands for the concentration giving half of the maximal activity seen. `Cn1cc2cc(-c3ccc4nc(N5CC(C)(C)NC(C)(C)C5)ccc4n3)c(O)cc2n1` [Compound 122, 2-methyl-5-[6-(3,3,5,5-tetramethylpiperazin-1-yl)-1,5-naphthyridin-2-yl]indazol-6-ol]: the concentration for half-maximal inhibition (IC50) in test [1] was over 10 µM; in test [2], over 10 µM; in test [3], 1 to 10 µM; in test [4], over 10 µM. Also, the concentration at half-maximal activity (AC50) in test [2] was over 10 µM.
Regarding `CN1CC2(C1)CN(c1ccc3nc(-c4cc5cn(C)nc5cc4O)ccc3n1)C2` [Compound 123, 2-methyl-5-(6-[6-methyl-2,6-diazaspiro[3.3]heptan-2-yl]-1,5-naphthyridin-2-yl) indazol-6-ol], the IC50 in test [1] was under 0.1 µM; in test [2] it was under 0.1 µM; in test [3], 0.1 to 1 µM; in test [4], under 0.1 µM. For the same molecule, the AC50 in test [2] lay in the range of 0.1 to 1 µM.
Take `Cn1cc2cc(-c3ccc4nc(N5CC6(CNC6)C5)ccc4n3)c(O)cc2n1` [Compound 124, 5-(6-[2,6-diazaspiro[3.3]heptan-2-yl]-1,5-naphthyridin-2-yl)-2-methylindazol-6-ol]: the half-maximal inhibitory concentration (IC50) is 0.1 to 1 µM in test [1], under 0.1 µM in test [2], under 0.1 µM in test [3] and under 0.1 µM in test [4]. The AC50 in test [2] lay within 0.1 to 1 µM.
Consider `Cn1cc2cc(-c3ccc4nc(N5CCC(N6CCCC6)C5)ccc4n3)c(O)cc2n1` (stereo not drawn) [Compound 125, 5-(6-[[1,3 m ? bipyrrolidin]-1 ? yl]-1,5-naphthyridin-2-yl)-2-methylindazol-6-ol], for which the IC50 in test [1] is 0.1 to 1 µM; in test [2], 0.1 to 1 µM; in test [3], 0.1 to 1 µM; in test [4] it was under 0.1 µM. In addition, the AC50 in test [2] was in the range of 0.1 to 1 µM.
As to `CN1CCC(N(C)c2ccc3nc(-c4cc5cn(C)nc5cc4O)ccc3n2)CC1` [Compound 126], the IC50 is under 0.1 µM in test [1], 0.1 to 1 µM in test [2], 0.1 to 1 µM in test [3] and under 0.1 µM in test [4]. For the same molecule, the concentration at half-maximal activity (AC50) in test [2] was in the range of 0.1 to 1 µM.
Regarding `Cn1cc2cc(-c3ccc4nc(N5CCC(NC(C)(C)C)C5)ccc4n3)c(O)cc2n1` (stereo not drawn) [Compound 127, 5-[6-[3-(tert-butylamino)pyrrolidin-1-yl]-1,5-naphthyridin-2-yl]-2-methylindazol-6-ol], the 50% inhibitory concentration (IC50) in test [1], in test [2], in test [3] and in test [4] was under 0.1 µM each time. In addition, the AC50 in test [2] was under 0.1 µM.
In the case of `CN(C)C1CCN(c2ccc3nc(-c4cc5cn(C)nc5cc4O)ccc3n2)C1` (stereo not drawn) [Compound 129, 5-[6-[3-(dimethylamino)pyrrolidin-1-yl]-1,5-naphthyridin-2-yl]-2-methylindazol-6-ol], the IC50 was 0.1 to 1 µM in test [1], 0.1 to 1 µM in test [2], 0.1 to 1 µM in test [3] and under 0.1 µM in test [4]. Further, in test [2], the AC50 fell in the range of 0.1 to 1 µM.
Take `CN(c1ccc2nc(-c3cc4cn(C)nc4cc3O)ccc2n1)C1CC(C)(C)NC(C)(C)C1` [Compound 130]: the IC50 is over 10 µM in test [1], over 10 µM in test [2], over 10 µM in test [3] and 0.1 to 1 µM in test [4]. For the same molecule, the AC50 in test [2] was over 10 µM.
Regarding `CCNC1CCN(c2ccc3nc(-c4cc5cn(C)nc5cc4O)ccc3n2)CC1` [Compound 131, 5-[6-[4-(ethylamino)piperidin-1-yl]-1,5-naphthyridin-2-yl]-2-methylindazol-6-ol], the IC50 was over 10 µM in test [1], 1 to 10 µM in test [2], 1 to 10 µM in test [3] and under 0.1 µM in test [4]. Moreover, the concentration at half-maximal activity (AC50) in test [2] is over 10 µM.
Turning to `Cn1cc2cc(-c3ccc4nc(N5CCC(NC(C)(C)C)CC5)ccc4n3)c(O)cc2n1` [Compound 132, 5-[6-[4-(tert-butylamino)piperidin-1-yl]-1,5-naphthyridin-2-yl]-2-methylindazol-6-ol], the IC50 in test [1], in test [2], in test [3] and in test [4] was over 10 µM throughout. Also, the half-maximal activity concentration (AC50) in test [2] was over 10 µM.
For the molecule `CN(C)C1CCN(c2ccc3nc(-c4cc5cn(C)nc5cc4O)ccc3n2)CC1` [Compound 133, 5-[6-[4-(dimethylamino)piperidin-1-yl]-1,5-naphthyridin-2-yl]-2-methylindazol-6-ol], the IC50 in test [1] was 1 to 10 µM; in test [2] it was 1 to 10 µM; in test [3], 1 to 10 µM; in test [4], under 0.1 µM. In addition, the AC50 in test [2] fell in the range of 1 to 10 µM.
For the molecule `Cn1cc2cc(-c3ccc4nc(N5CCN6CCCC6C5)ccc4n3)c(O)cc2n1` (stereo not drawn) [Compound 134, 5-(6-[hexahydro-1H-pyrrolo[1,2-a]pyrazin-2-yl]-1,5-naphthyridin-2-yl)-2-methylindazol-6-ol], the concentration for half-maximal inhibition (IC50) in test [1] was 1 to 10 µM; in test [2] it was 1 to 10 µM; in test [3], 1 to 10 µM; in test [4], under 0.1 µM. The AC50 in test [2] was 1 to 10 µM.
`Cn1cc2cc(-c3ccc4nc(N5C[C@H]6CC[C@@H](C5)N6)ccc4n3)c(O)cc2n1` [Compound 135, 5-[6 [(1R,5 S)-3,8-diazabicyclo[3.2.1]octan-3-yl]-1,5-naphthyridin-2-yl]-2-methylindazol-6-01]: the 50% inhibitory concentration (IC50) in test [1] was 1 to 10 µM; in test [2], 1 to 10 µM; in test [3], 1 to 10 µM; in test [4], under 0.1 µM. The half-maximal activity concentration (AC50) in test [2] was in the range of 1 to 10 µM.
For `Cn1cc2cc(-c3ccc4nc(N5CCNCC5)ccc4n3)c(O)cc2n1` [Compound 136], the half-inhibitory concentration (IC50) is 0.1 to 1 µM in test [1], 1 to 10 µM in test [2], 1 to 10 µM in test [3] and under 0.1 µM in test [4]. Also, the AC50 in test [2] was 1 to 10 µM.
Turning to `C[C@@H]1CC(c2ccc3nc(-c4cc5cn(C)nc5cc4O)ccc3n2)C[C@H](C)N1` (stereo partly drawn) [Compound 137, 5-[6-[(2R,6S)-2,6-dimethylpiperidin-4-yl]-1,5-naphthyridin-2-yl]-2-methylindazol-6-ol], the IC50 in test [1] was 1 to 10 µM; in test [2], 0.1 to 1 µM; in test [3], 0.1 to 1 µM; in test [4] it was under 0.1 µM. In test [2], the AC50 lay in the range of 0.1 to 1 µM.
With `CCN1CCC(c2ccc3nc(-c4cc5cn(C)nc5cc4O)ccc3n2)CC1` [Compound 138, 5-[6-(1-ethylpiperidin-4-yl)-1,5-naphthyridin-2-yl]-2-methylindazol-6-ol], the IC50 in test [1] is 1 to 10 µM; in test [2], 0.1 to 1 µM; in test [3], 0.1 to 1 µM; in test [4] it was under 0.1 µM. The AC50 in test [2] is 0.1 to 1 µM.
With `Cn1cc2c(O)c(-c3cc4ccc(C5CCNCC5)nc4cn3)cc(Br)c2n1` [Compound 141], the IC50 in test [1] is over 10 µM; in test [2] it was 1 to 10 µM; in test [3], 1 to 10 µM; in test [4] it was 0.1 to 1 µM. The AC50 in test [2] was 1 to 10 µM.
On to `CN1CCC(c2ccc3nc(-c4cc5cn(C)nc5cc4O)ccc3n2)CC1` [Compound 142, 2-methyl-5-[6-(1-methylpiperidin-4-yl)-1,5-naphthyridin-2-yl]indazol-6-ol], for which the half-maximal inhibitory concentration (IC50) in test [1] is 0.1 to 1 µM; in test [2], 0.1 to 1 µM; in test [3], 0.1 to 1 µM; in test [4], under 0.1 µM. Moreover, the AC50 in test [2] lay in the range of 0.1 to 1 µM.
For the molecule `COc1cc2nn(C)cc2cc1-c1ccc2c(F)c(C3CCNCC3)ccc2n1` [Compound 143, 5-fluoro-2-(6-methoxy-2-methylindazol-5-yl)-6-(piperidin-4-yl)quinoline], the IC50 in test [1], in test [2], in test [3] and in test [4] was over 10 µM throughout. In test [2], the AC50 is over 10 µM.
In the case of `Cn1cc2cc(-c3ccc4cc(C5CCNCC5)c(F)cc4n3)c(O)cc2n1` [Compound 144, 5-[7-fluoro-6-(piperidin-4-yl)quinolin-2-yl]-2-methylindazol-6-01], the IC50 in test [1], in test [2], in test [3] and in test [4] was over 10 µM throughout. Besides, the AC50 in test [2] was over 10 µM.
`COc1cc2nn(C)cc2cc1-c1ccc2cc(C3CCNCC3)c(F)cc2n1` [Compound 145, 7-fluoro-2-(6-methoxy-2-methylindazol-5-yl)-6-(piperidin-4-yl)quinoline]: the 50% inhibitory concentration (IC50) in test [1], in test [2], in test [3] and in test [4] was over 10 µM throughout. In addition, in test [2], the concentration at half-maximal activity (AC50) is over 10 µM.
Consider `Cn1cc2cc(O)c(-c3ccc4nc(C5CCNCC5)ccc4n3)cc2n1` [Compound 146, 2-methyl-6-[6-(piperidin-4-yl)-1,5-naphthyridin-2-yl]indazol-5-ol], for which the IC50 in test [1] was 1 to 10 µM; in test [2], 1 to 10 µM; in test [3], 1 to 10 µM; in test [4], 0.1 to 1 µM. Further, the concentration at half-maximal activity (AC50) in test [2] is 1 to 10 µM.
Regarding `Cc1nc2cc(O)c(-c3ccc4nc(C5CCNCC5)ccc4n3)cc2o1` [Compound 147, 2-methyl-6-[6-(piperidin-4-yl)-1,5-naphthyridin-2-yl]-1,3-benzoxazol-5-ol], the IC50 in test [1], in test [2], in test [3] and in test [4] was under 0.1 µM in each case. Besides, the concentration at half-maximal activity (AC50) in test [2] was under 0.1 µM.
Regarding `Cc1nc2cc(O)c(-c3ccc4nc(C5CCNCC5)ccc4n3)cc2s1` [Compound 148], the IC50 is 1 to 10 µM in test [1], 1 to 10 µM in test [2], 1 to 10 µM in test [3] and under 0.1 µM in test [4]. The half-maximal activity concentration (AC50) in test [2] was in the range of 1 to 10 µM.
